One test relates to calvaria culture. As to the kind of experiment: calvaria culture: reduction of the hydroxyproline/proline quotients in metabolic labeling with ^14 C-proline. It is filed as cell-based. The note with it: 50% reduction of the hydroxyproline/proline quotients in metabolic labeling with ^14 C-proline; esters. An excerpt:
The inhibitory activity can also be determined in cell or tissue culture. To do this, fibroblasts or other collagen-producing cells or calvaria or other collagen-producing organs can be employed. The inhibitory activity of substances according to the invention in calvaria culture is collated in Table 3. The concentration is indicated which leads to a 50% reduction of the hydroxyproline/proline quotients in metabolic labeling with ^14 C-proline (IC50).

The target of the next test is prolyl hydroxylase (Homo sapiens, UniProt P13674). As to the kind of experiment: enzyme test: hydroxylation of underhydroxylated collagen with prolyl hydroxylase in the presence of iron(II) ions, α-keto glutarate and ascorbate. It is filed as biochemical. As to conditions: concentration which leads to an 80% inhibition of enzyme activity (the value is indicated as Ki); salts.

The test system of test [1] is Clq biosynthesis of macrophages. The note with it: W. Muller et al., FEBS Lett. 90, 218 (1978); cited from earlier work.

Structures can show the parent of a compound that is named as a salt.

prolyl hydroxylase, sequence (P13674 18-534): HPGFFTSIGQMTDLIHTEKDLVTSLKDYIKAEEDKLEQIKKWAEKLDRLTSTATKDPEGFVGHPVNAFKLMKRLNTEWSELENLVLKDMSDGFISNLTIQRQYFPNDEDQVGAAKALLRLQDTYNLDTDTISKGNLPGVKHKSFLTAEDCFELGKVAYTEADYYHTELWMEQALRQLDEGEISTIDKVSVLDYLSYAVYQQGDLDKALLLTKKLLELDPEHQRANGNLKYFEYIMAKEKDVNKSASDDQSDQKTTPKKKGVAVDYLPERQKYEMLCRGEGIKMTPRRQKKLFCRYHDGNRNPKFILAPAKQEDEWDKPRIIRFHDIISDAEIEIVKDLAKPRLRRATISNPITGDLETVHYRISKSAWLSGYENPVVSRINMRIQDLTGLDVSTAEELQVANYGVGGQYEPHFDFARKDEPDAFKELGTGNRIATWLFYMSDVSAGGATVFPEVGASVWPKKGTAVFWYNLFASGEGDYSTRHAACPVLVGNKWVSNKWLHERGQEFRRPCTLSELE
prolyl hydroxylase, sequence (P07237 18-508 partner): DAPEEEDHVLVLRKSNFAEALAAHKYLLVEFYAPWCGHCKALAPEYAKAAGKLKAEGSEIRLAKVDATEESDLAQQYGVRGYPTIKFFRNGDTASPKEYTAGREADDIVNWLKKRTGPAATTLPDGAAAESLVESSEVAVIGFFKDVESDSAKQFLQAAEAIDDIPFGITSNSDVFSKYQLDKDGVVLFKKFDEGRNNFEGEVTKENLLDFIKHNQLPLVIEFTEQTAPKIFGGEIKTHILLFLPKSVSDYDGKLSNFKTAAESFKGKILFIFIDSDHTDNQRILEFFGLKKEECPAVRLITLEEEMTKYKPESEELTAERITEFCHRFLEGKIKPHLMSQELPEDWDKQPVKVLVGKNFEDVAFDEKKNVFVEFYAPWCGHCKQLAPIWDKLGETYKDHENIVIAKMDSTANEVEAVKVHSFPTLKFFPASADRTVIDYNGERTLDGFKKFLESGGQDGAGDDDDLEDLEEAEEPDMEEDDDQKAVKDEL

A word on the IC50: it is the concentration that gives 50% inhibition. A low value points to higher potency. The compound `COC(=O)C(=O)N[C@@H](C)C(=O)OC` [Example 1, (N-Oxalyl)-L-alanine dimethyl ester] displayed an IC50 in the test on calvaria culture of 350 µM.
In turn, `COC(=O)CNC(=O)C(=O)OC` [Example 3, (N-Oxalyl)-L-glycine dimethyl ester] showed an IC50 in the test with calvaria culture of 2 µM.
As usually defined, the Ki is the equilibrium dissociation constant of an inhibitor or competing ligand from its target. Consider `O=C(O)CNC(=O)C(=O)O` [Example 10, (N-Oxalyl)-L-glycine dipotassium salt], for which, at prolyl hydroxylase, the Ki was 10 µM.
The same measure, in the same setting: under `C[C@H](NC(=O)C(=O)O)C(=O)O` [dipotassium salt] stands 40 µM.
Turning to `c1ccc(-c2ccccn2)nc1` [α, α-dipyridyl], the “inhibition of Clq biosynthesis” value in test [1] is given as “inhibition of Clq biosynthesis of macrophages”.
